# Patent US7807439B2, “Staphylococcus aureus-specific detection media and identifying and/or counting method using same” (Biomerieux S.A., priority 2001, dated 2010)
# Test system: S. aureus 276
# Experiment: Experiment 4: naphthol derivative substrates in API galleries, liquid medium
# Format: cell-based, Staphylococcus aureus
# Design: key to intensity of coloration (enzyme activity mark): the mark 0 corresponds to a negative reaction; marks 1, 2, 3 and 4 indicate intermediate levels of coloration and therefore of enzyme activity; marks 1, 2, 3 and 4 indicate intermediate levels of coloration and therefore of enzyme activity; marks 1, 2, 3 and 4 indicate intermediate levels of coloration and therefore of enzyme activity; marks 1, 2, 3 and 4 indicate intermediate levels of coloration and therefore of enzyme activity; the mark 5 to a reaction of maximum intensity
# Conditions: S. aureus 276; 4 hours of incubation at 37° C.
# Description: (§1) The experiment below was carried out in a liquid medium and in the presence of naphthol derivative-based chromogenic substrates.
# (§2) The medium and the substrates are distributed into API “galleries” (trademark) produced by the company bioMérieux at Marcy I'Etoile, France.
# (§3) These “galleries” constitute a semi-quantitative method for searching for enzyme activities in microorganisms and make it possible to rapidly and simultaneously study nineteen enzyme activities. Each “gallery” comprises twenty cupules in which the solutions containing the enzyme substrates are distributed. The enzyme assays are carried out by distributing 65 μl of bacterial suspension at 5-6 McFarland into each cupule.
# (§4) The intensity of coloration for each cupule is examined visually after 4 hours of incubation at 37° C. and after the addition of appropriate reagents: ZYM A (ref.: 70470) and ZYM B (ref.: 70480), which can be obtained from bioMérieux also mentioned above. The intensity of coloration will be directly proportional to the amount of substrate hydrolysed by the enzyme.
# (§5) The values for the intensity of coloration are then marked on a results sheet according to the following classification: the mark 0 corresponds to a negative reaction, the mark 5 to a reaction of maximum intensity, marks 1, 2, 3 and 4 indicate intermediate levels of coloration and therefore of enzyme activity. More detailed information on this marking can be found in the API reading scale provided with the “galleries” of the same name.
# (§6) The enzyme activity sought and the corresponding naphthol derivative substrates are described in table 6 below: […]
row,Compound,intensity of coloration (enzyme activity mark)
1,"O=P(O)(O)Oc1ccc2ccccc2c1 [No 2, 2-naphthyl-phosphate]",2
2,"OC[C@H]1O[C@H](Oc2ccc3cc(Br)ccc3c2)[C@H](O)[C@@H](O)[C@H]1O [No 3, 6-bromo-2-naphthyl-α-D-galactopyranoside]",0
3,"OC[C@H]1O[C@@H](Oc2ccc3ccccc3c2)[C@H](O)[C@@H](O)[C@H]1O [No 4, 2-naphthyl-β-D-galactopyranoside]",0
4,"OC[C@H]1O[C@H](Oc2ccc3ccccc3c2)[C@H](O)[C@@H](O)[C@@H]1O [No 6, 2-naphthyl-α-D-glucopyranoside]",5
5,"OC[C@H]1O[C@@H](Oc2ccc3cc(Br)ccc3c2)[C@H](O)[C@@H](O)[C@@H]1O [No 7, 6-bromo-2-naphtyl-β-D-glucopyranoside]",0
6,naphthol-β-D-glucuronide [No 5],0

# Same assay, conditions: Staphylococcus aureus strain; API gallery
row,Compound,α-glucosidase activity
1,"OC[C@H]1O[C@H](Oc2ccc3ccccc3c2)[C@H](O)[C@@H](O)[C@@H]1O [No 6, 2-naphthyl-α-D-glucopyranoside]",strongly expressed

# Test system: S. saprophyticus 009
# Experiment: as above
# Format: cell-based, Staphylococcus saprophyticus
# Design: key: the mark 0 corresponds to a negative reaction; marks 1, 2, 3 and 4 indicate intermediate levels of coloration and therefore of enzyme activity; marks 1, 2, 3 and 4 indicate intermediate levels of coloration and therefore of enzyme activity; marks 1, 2, 3 and 4 indicate intermediate levels of coloration and therefore of enzyme activity; marks 1, 2, 3 and 4 indicate intermediate levels of coloration and therefore of enzyme activity; the mark 5 to a reaction of maximum intensity
# Conditions: 4 hours of incubation at 37° C.
# Description: as §1, §2, §3, §4, §5, §6
row,Compound,intensity of coloration (enzyme activity mark)
1,"O=P(O)(O)Oc1ccc2ccccc2c1 [No 2, 2-naphthyl-phosphate]",1
2,"OC[C@H]1O[C@H](Oc2ccc3cc(Br)ccc3c2)[C@H](O)[C@@H](O)[C@H]1O [No 3, 6-bromo-2-naphthyl-α-D-galactopyranoside]",0
3,"OC[C@H]1O[C@@H](Oc2ccc3ccccc3c2)[C@H](O)[C@@H](O)[C@H]1O [No 4, 2-naphthyl-β-D-galactopyranoside]",3
4,"OC[C@H]1O[C@H](Oc2ccc3ccccc3c2)[C@H](O)[C@@H](O)[C@@H]1O [No 6, 2-naphthyl-α-D-glucopyranoside]",1
5,"OC[C@H]1O[C@@H](Oc2ccc3cc(Br)ccc3c2)[C@H](O)[C@@H](O)[C@@H]1O [No 7, 6-bromo-2-naphtyl-β-D-glucopyranoside]",0
6,naphthol-β-D-glucuronide [No 5],0

# Test system: S. epidermidis 103
# Experiment: as above
# Format: cell-based, Staphylococcus epidermidis
# Design: key: the mark 0 corresponds to a negative reaction; marks 1, 2, 3 and 4 indicate intermediate levels of coloration and therefore of enzyme activity; marks 1, 2, 3 and 4 indicate intermediate levels of coloration and therefore of enzyme activity; marks 1, 2, 3 and 4 indicate intermediate levels of coloration and therefore of enzyme activity; marks 1, 2, 3 and 4 indicate intermediate levels of coloration and therefore of enzyme activity; the mark 5 to a reaction of maximum intensity
# Conditions: 4 hours of incubation at 37° C.
# Description: as §1, §2, §3, §4, §5, §6
row,Compound,intensity of coloration (enzyme activity mark)
1,"O=P(O)(O)Oc1ccc2ccccc2c1 [No 2, 2-naphthyl-phosphate]",3
2,"OC[C@H]1O[C@H](Oc2ccc3cc(Br)ccc3c2)[C@H](O)[C@@H](O)[C@H]1O [No 3, 6-bromo-2-naphthyl-α-D-galactopyranoside]",0
3,"OC[C@H]1O[C@@H](Oc2ccc3ccccc3c2)[C@H](O)[C@@H](O)[C@H]1O [No 4, 2-naphthyl-β-D-galactopyranoside]",0
4,"OC[C@H]1O[C@H](Oc2ccc3ccccc3c2)[C@H](O)[C@@H](O)[C@@H]1O [No 6, 2-naphthyl-α-D-glucopyranoside]",1
5,"OC[C@H]1O[C@@H](Oc2ccc3cc(Br)ccc3c2)[C@H](O)[C@@H](O)[C@@H]1O [No 7, 6-bromo-2-naphtyl-β-D-glucopyranoside]",0
6,naphthol-β-D-glucuronide [No 5],0

# Test system: S. haemolyticus 137
# Experiment: as above
# Format: cell-based, Staphylococcus haemolyticus
# Design: key: the mark 0 corresponds to a negative reaction; marks 1, 2, 3 and 4 indicate intermediate levels of coloration and therefore of enzyme activity; marks 1, 2, 3 and 4 indicate intermediate levels of coloration and therefore of enzyme activity; marks 1, 2, 3 and 4 indicate intermediate levels of coloration and therefore of enzyme activity; marks 1, 2, 3 and 4 indicate intermediate levels of coloration and therefore of enzyme activity; the mark 5 to a reaction of maximum intensity
# Conditions: 4 hours of incubation at 37° C.
# Description: as §1, §2, §3, §4, §5, §6
row,Compound,intensity of coloration (enzyme activity mark)
1,"O=P(O)(O)Oc1ccc2ccccc2c1 [No 2, 2-naphthyl-phosphate]",0
2,"OC[C@H]1O[C@H](Oc2ccc3cc(Br)ccc3c2)[C@H](O)[C@@H](O)[C@H]1O [No 3, 6-bromo-2-naphthyl-α-D-galactopyranoside]",0
3,"OC[C@H]1O[C@@H](Oc2ccc3ccccc3c2)[C@H](O)[C@@H](O)[C@H]1O [No 4, 2-naphthyl-β-D-galactopyranoside]",0
4,"OC[C@H]1O[C@H](Oc2ccc3ccccc3c2)[C@H](O)[C@@H](O)[C@@H]1O [No 6, 2-naphthyl-α-D-glucopyranoside]",2
5,"OC[C@H]1O[C@@H](Oc2ccc3cc(Br)ccc3c2)[C@H](O)[C@@H](O)[C@@H]1O [No 7, 6-bromo-2-naphtyl-β-D-glucopyranoside]",0
6,naphthol-β-D-glucuronide [No 5],0

# Test system: S. intermedius 075
# Experiment: as above
# Format: cell-based, Staphylococcus intermedius
# Design: key: the mark 0 corresponds to a negative reaction; marks 1, 2, 3 and 4 indicate intermediate levels of coloration and therefore of enzyme activity; marks 1, 2, 3 and 4 indicate intermediate levels of coloration and therefore of enzyme activity; marks 1, 2, 3 and 4 indicate intermediate levels of coloration and therefore of enzyme activity; marks 1, 2, 3 and 4 indicate intermediate levels of coloration and therefore of enzyme activity; the mark 5 to a reaction of maximum intensity
# Conditions: 4 hours of incubation at 37° C.
# Description: as §1, §2, §3, §4, §5, §6
row,Compound,intensity of coloration (enzyme activity mark)
1,"O=P(O)(O)Oc1ccc2ccccc2c1 [No 2, 2-naphthyl-phosphate]",4
2,"OC[C@H]1O[C@H](Oc2ccc3cc(Br)ccc3c2)[C@H](O)[C@@H](O)[C@H]1O [No 3, 6-bromo-2-naphthyl-α-D-galactopyranoside]",0
3,"OC[C@H]1O[C@@H](Oc2ccc3ccccc3c2)[C@H](O)[C@@H](O)[C@H]1O [No 4, 2-naphthyl-β-D-galactopyranoside]",3
4,"OC[C@H]1O[C@H](Oc2ccc3ccccc3c2)[C@H](O)[C@@H](O)[C@@H]1O [No 6, 2-naphthyl-α-D-glucopyranoside]",1
5,"OC[C@H]1O[C@@H](Oc2ccc3cc(Br)ccc3c2)[C@H](O)[C@@H](O)[C@@H]1O [No 7, 6-bromo-2-naphtyl-β-D-glucopyranoside]",0
6,naphthol-β-D-glucuronide [No 5],0
